Patent publication US9701709B2 (REATA PHARMACEUTICALS, INC., priority 2012, dated 2017)
Marks after values point to notes of the source that are not given here.

Experiments:
Format in all cases: physicochemical
[1] = Approximate solubility by manual dilution; conditions: r.t.
Method: The approximate solubility of the PP415-P1 starting material was measured in twelve solvents and four solvent mixtures at r.t. by manual dilution combined with visual observation (Table 10). Due to the experimental error inherent in this method, the solubility values are intended to be regarded as rough estimates and are to be used solely for the design of crystallization experiments. All solvent mixtures are listed as ratios by volume (v/v).
Approximate Solubility Determination: Approximate solubilities were determined by a stepwise dilution of a suspension of about 10 mg of substance in 0.05 mL of solvent. […] Due to the experimental error inherent in this method, the solubility values are intended to be regarded as rough estimates and are to be used solely for the design of crystallization experiments.

[2] = Chemical stability in solvents and aqueous surfactant media (HPLC); conditions: diluent 0.1% formic acid in MeCN, within ~24 hours; start 99.9%
Method: The chemical stability of the amorphous form was investigated in different solvents over the course of seven days.
Solutions/suspensions with a concentration of 1 mg/mL were prepared in four organic solvents (acetone, MeOH, MeCN, EtOAc) and three aqueous surfactant media (1% aq. SDS, 1% aq. Tween 80, 1% aq. CTAB).
Four separate solutions/suspensions were prepared for each solvent, equilibrated for 6 h, 24 h, 2 d, and 7 d and subsequently analyzed by HPLC.
Due to this effect, the samples measured towards the end of the sequence (set up in the following order: 7 d, 2 d, 24 h, 6 h), might be affected and the obtained area-% might be underestimated.
Four samples of 1.0 mg of the PP415-P1 material in 1.0 mL of the respective solvent were prepared. The resulting suspensions/solutions were equilibrated in a temperature-controlled Eppendorf Thermomixer Comfort shaker for 7 d, 2 d, 24 h, and 6 h at 25° C. at a shaking rate of 500 rpm. If necessary, the solid phase was separated by filter centrifugation (0.5-μm PVDF membrane). The filtrates were diluted in the diluent (0.1% formic acid in MeCN) to concentrations≦0.2 mg/mL (unknown and likely lower for suspensions) and examined using the HPLC method given in Table 29. As reference, the PP415-P1 material was diluted in the diluent to a concentration of 0.25 mg/mL and added to the beginning and end of the HPLC sequence.

[3] = Storage stability of the amorphous form (PXRD)
Method: To learn more about its fundamental properties and physical stability, the amorphous form of 63415 was stressed by storage at elevated temperatures and relative humidities.
Samples of the amorphous form (the PP415-P1 starting material) were stored open at 25° C./˜62% r.h. (over saturated aqueous solution of NH4NO3) and 40° C./˜75% r.h. (over saturated aqueous solution of NaCl) and closed at 60° C. and 80° C. (Table 12). At time points 0 w, 1 w, 2 w, and 4 w the samples were examined by PXRD and compared to the starting material, PP415-P1.

[4] = Dynamic vapor sorption (hygroscopicity)
Method: Projekt Messtechnik Sorptions Prüfsystem SPS 11-100n or Surface Measurement Systems DVS-1. The sample was placed on an aluminum or platinum holder on top of a microbalance and allowed to equilibrate for 2 h at 50% r.h. before starting the pre-defined humidity program: • (1) 50→0% r.h. (5%/h); 5 h at 0% r.h. • (2) 0→95% r.h. (5%/h); 5 h at 95% r.h. • (3) 95→50% r.h. (5%/h); 2 h at 50% r.h.

[5] = Polymorph screen: crystallization and drying experiments (FT-Raman, PXRD, TG-FTIR, DSC)
Method: A preformulation and polymorphism study was performed for compound 63415. […] A total of 30 crystallization experiments, including phase equilibrations, drying experiments and other techniques, were carried out. All obtained solids were characterized by FT-Raman spectroscopy. All new forms were characterized by PXRD and TG-FTIR, and optionally by DSC and DVS.
All obtained materials were characterized by FT-Raman spectroscopy; selected samples were also characterized by PXRD.
Suspension equilibration experiments were carried out in one solvent and eleven solvent mixtures (Table 13). Suspensions of ˜100 mg of PP415-P1 in 0.2-2.0 mL of the selected solvents were prepared and shaken for 4-15 days at 22-24° C. The solids were recovered and characterized by FT-Raman spectroscopy; most were characterized also by PXRD.
Hot solutions of PP415-P1 were prepared in one solvent and four solvent mixtures (Table 14). […] In two cases (-P22, -P23) no solid precipitated, even after storage at 4-5° C. for two days. Here, the solvent was evaporated under N2 flow at r.t. The solids were recovered and characterized by FT-Raman spectroscopy and for those with spectra different from the amorphous starting material, FT-Raman class 1, also by PXRD.
Clear solutions of PP415-P1 were prepared in three solvent mixtures (Table 15). The solvents were then slowly evaporated at r.t. under ambient conditions. However, in two of the three experiments (-P15 and -P17) white solid precipitated before evaporation began. The obtained solids were examined by FT-Raman spectroscopy and PXRD.
At least one sample of each class was dried under vacuum with the aim to desolvate the solvates and to obtain non-solvated crystalline forms of 63415 (Table 16). The dried materials were characterized further by FT-Raman, PXRD, and TG-FTIR.
Bruker RFS100 with OPUS 6.5 software; Nd:YAG 1064-nm excitation, Ge detector, 3500-100 cm^−1 range; typical measurement conditions: 100-300 mW nominal laser power, 64-128 scans, 2 cm^−1 resolution.
Stoe Stadi P; Mythen1K Detector; Cu—Kα radiation; standard measurement conditions: transmission; 40 kV and 40 mA tube power; curved Ge monochromator; 0.02°2θ step size, 12 s or 60 s step time, 1.5-50.5°2θ or 1.0-55°2θ scanning range; detector mode: step scan; 1°2θ or 6°2θ detector step; standard sample preparation: 10 to 20 mg sample was placed between two acetate foils; sample holder: Stoe transmission sample holder; the sample was rotated during the measurement.
Netzsch Thermo-Microbalance TG 209 with Bruker FT-IR Spectrometer Vector 22; aluminum crucible (with microhole), N2 atmosphere, 10 K/min heating rate, 25-250° C. or 25-350° C. range.
Perkin Elmer DSC 7; gold crucibles (closed or with microhole), sample filled in an N2 environment, 10 K/min heating rate, −50 to 250° C. or 350° C. range, at times quench cooling (at −200 K/min) to −50° C. between scans.

## CC1(C)CC[C@]2(NC(=O)C(C)(F)F)CC[C@]3(C)[C@H](C(=O)C=C4[C@@]5(C)C=C(C#N)C(=O)C(C)(C)[C@@H]5CC[C@]43C)[C@@H]2C1 [PP415-P1]
[1]; DCM
  Solubility S: S > 200 mg/mL
[1]; DEE, dissolved completely overnight
  Solubility S: S > 1^d mg/mL
[1]; DMF
  Solubility S: S > 210 mg/mL
[1]; EtOAc
  Solubility S: S > 210 mg/mL
[1]; H2O
  Solubility S: S < 1 mg/mL
[1]; MeCN
  Solubility S: S > 230 mg/mL
[1]; MeCN/H2O (2:3)
  Solubility S: S < 1 mg/mL
[1]; MeOH
  Solubility S: S < 210 mg/mL
[1]; acetone
  Solubility S: S > 230 mg/mL
[1]; heptane
  Solubility S: S < 1 mg/mL
[1]; toluene
  Solubility S: S > 200 mg/mL
[1]; toluene/DEE (1:1), precipitation after ~1d
  Solubility S: S > 220 mg/mL
[2]
  area-% of reference sample at end of HPLC sequence, 242 nm: 99.5%
  area-% of reference sample at end of HPLC sequence, 254 nm: 99.3%
[3]; closed, 60° C., 1 w
  PXRD Result after storage: amorphous
[3]; closed, 60° C., 2 w
  PXRD Result after storage: amorphous
[3]; closed, 60° C., 4 w
  PXRD Result after storage: amorphous
[3]; closed, 80° C., 1 w
  PXRD Result after storage: amorphous
[3]; closed, 80° C., 2 w
  PXRD Result after storage: amorphous
[3]; closed, 80° C., 4 w
  PXRD Result after storage: amorphous
[3]; open, 25° C./~62% r.h., 1 w
  PXRD Result after storage: amorphous
[3]; open, 25° C./~62% r.h., 2 w
  PXRD Result after storage: amorphous
[3]; open, 25° C./~62% r.h., 4 w
  PXRD Result after storage: amorphous
[3]; open, 40° C./~75% r.h., 1 w
  PXRD Result after storage: amorphous
[3]; open, 40° C./~75% r.h., 2 w
  PXRD Result after storage: amorphous
[3]; open, 40° C./~75% r.h., 4 w
  PXRD Result after storage: amorphous
[4]
  DVS: hygroscopicity class: DVS: slightly hygroscopic; Δm = (mass increase <2% but ≧0.2%)
[4]; 0% r.h. to 95% r.h.
  DVS: total mass gain from 0% r.h. to 95% r.h.: mass gain of 2.1 wt.-% from 0%
[4]; 50%→85% r.h.
  DVS: Δm (50%→85% r.h.): +0.4% (50%→85% r.h.); total
[4]; DVS
  Δm (50%→85% r.h.): +0.4%
[4]; after DVS
  post-DVS Raman and/or PXRD: solid form: unchanged
[4]; mass gain at 85% r.h.
  Hygroscopicity classification (DVS): slightly hygroscopic (mass increase <2% but ≧0.2%)
[5]
  TG-FTIR: decomposition at T: decomposition at T > 290 °C
[5]; 1st scan
  DSC: Tg, 1st scan: DSC: 1st scan: Tg = 152.7 °C
[5]; 2nd scan
  DSC: Tg, 2nd scan: Tg = 149.7 °C (ΔCp = 0.45 J/g ° C.)
[5]; first or main loss, solvent and temperature range per sample as printed
  TG-FTIR: mass loss (solvent): TG-FTIR: loss of ~0.9 wt.-%
